Active and inactive are the calls of the source. The rule behind the calls is not given here.
What was measured:
[1] = system: HCT-116; assay: Cell cycle arrest in human HCT-116 cells assessed as accumulation of cells at G2/M phase at 0.5 uM measured after 24 hrs by propidium iodide staining based flow cytometry (reference value: 22.74%); format: functional
[2] = system: HCT-116; assay: Cell cycle arrest in human HCT-116 cells assessed as accumulation of cells at G0/G1 phase at 0.5 uM measured after 24 hrs by propidium iodide staining based flow cytometry (reference value: 58.05%); format: functional
[3] = biological target: Histone deacetylase 1/2/3 (Homo sapiens) (UniProt Q13547+O15379+Q92769); assay: Inhibition of HDAC1/HDAC2/HDAC3 in human HCT-116 cells assessed as increase in accumulation of acetylated H3K9 measured after 24 hrs by Western blot analysis; format: cell-based; details: dose 0.1-10 µM, DDE = dose-dependent effect
[4] = system: K562; assay: cells; format: functional, cell-based; details: Homo sapiens, K562, 48 h
[5] = biological target: Histone deacetylase (Homo sapiens) (UniProt Q13547+O15379+Q9UBN7+Q92769+Q9UQL6+Q8WUI4+Q9BY41+Q96DB2+P56524+Q9UKV0+Q969S8); assay: Potency index, ratio of MS-275 IC50 to test compound IC50 for inhibition of HDAC in human HeLa cell nuclear extracts using color de Lys as substrate
[6] = system: HCT-116; assay: Cell cycle arrest in human HCT-116 cells assessed as accumulation of cells at G2/M phase at 5 uM measured after 24 hrs by propidium iodide staining based flow cytometry (reference value: 22.74%); format: functional
[7] = Half life in dog liver microsomes at 13.8 uM by HPLC analysis; format: ADME, Canis lupus familiaris, Microsome
[8] = Intrinsic clearance in dog liver microsomes assessed per mg protein at 13.8 uM by HPLC analysis; format: ADME, Canis lupus familiaris, Microsome
[9] = system: HCT-116; assay: Induction of apoptosis in human HCT-116 cells assessed as early apoptotic cells at 5 uM measured after 24 hrs by Annexin V-FITC/propidium iodide staining based flow cytometry (reference value: 1.87%); format: functional
[10] = system: HCT-116; assay: Cell cycle arrest in human HCT-116 cells assessed as accumulation of cells at G0/G1 phase at 1 uM measured after 24 hrs by propidium iodide staining based flow cytometry (reference value: 58.05%); format: functional
[11] = biological target: Histone deacetylase 4 (Homo sapiens, UniProt P56524); assay: Inhibition of recombinant human N-terminal GST-fused/C-terminal His-tagged HDAC4 (627 to 1084 residues) expressed in baculovirus infected Sf9 insect cells using fluorogenic HDAC class 2a substrate measured after 30 mins by fluorimetry
[12] = system: HCT-116; assay: Induction of cell morphological changes in human HCT-116 cells assessed as cell vacuolization at 0.5 to 5 uM measured after 24 hrs by phase contrast microscopy; format: functional, cell-based; details: dose 0.5-5 µM
[13] = system: HCT-116; assay: Cell cycle arrest in human HCT-116 cells assessed as accumulation of cells at G2/M phase at 10 uM measured after 6 hrs by propidium iodide staining based flow cytometry (reference value: 22.74%); format: functional
[14] = system: HCT-116; assay: Cell cycle arrest in human HCT-116 cells assessed as up regulation of p21 expression measured after 24 hrs by Western blot analysis; format: functional, cell-based; details: dose 0.1-10 µM, DDE = dose-dependent effect
[15] = biological target: T1, Protein deacetylase HDAC6 (Homo sapiens, UniProt Q9UBN7); assay: Inhibition of recombinant human N-terminal GST-tagged HDAC6 (1 to 1215 residues) expressed in Sf9 insect cells using fluorogenic HDAC substrate 3 measured after 30 mins by fluorimetry
T1 sequence (Q9UBN7 whole entry): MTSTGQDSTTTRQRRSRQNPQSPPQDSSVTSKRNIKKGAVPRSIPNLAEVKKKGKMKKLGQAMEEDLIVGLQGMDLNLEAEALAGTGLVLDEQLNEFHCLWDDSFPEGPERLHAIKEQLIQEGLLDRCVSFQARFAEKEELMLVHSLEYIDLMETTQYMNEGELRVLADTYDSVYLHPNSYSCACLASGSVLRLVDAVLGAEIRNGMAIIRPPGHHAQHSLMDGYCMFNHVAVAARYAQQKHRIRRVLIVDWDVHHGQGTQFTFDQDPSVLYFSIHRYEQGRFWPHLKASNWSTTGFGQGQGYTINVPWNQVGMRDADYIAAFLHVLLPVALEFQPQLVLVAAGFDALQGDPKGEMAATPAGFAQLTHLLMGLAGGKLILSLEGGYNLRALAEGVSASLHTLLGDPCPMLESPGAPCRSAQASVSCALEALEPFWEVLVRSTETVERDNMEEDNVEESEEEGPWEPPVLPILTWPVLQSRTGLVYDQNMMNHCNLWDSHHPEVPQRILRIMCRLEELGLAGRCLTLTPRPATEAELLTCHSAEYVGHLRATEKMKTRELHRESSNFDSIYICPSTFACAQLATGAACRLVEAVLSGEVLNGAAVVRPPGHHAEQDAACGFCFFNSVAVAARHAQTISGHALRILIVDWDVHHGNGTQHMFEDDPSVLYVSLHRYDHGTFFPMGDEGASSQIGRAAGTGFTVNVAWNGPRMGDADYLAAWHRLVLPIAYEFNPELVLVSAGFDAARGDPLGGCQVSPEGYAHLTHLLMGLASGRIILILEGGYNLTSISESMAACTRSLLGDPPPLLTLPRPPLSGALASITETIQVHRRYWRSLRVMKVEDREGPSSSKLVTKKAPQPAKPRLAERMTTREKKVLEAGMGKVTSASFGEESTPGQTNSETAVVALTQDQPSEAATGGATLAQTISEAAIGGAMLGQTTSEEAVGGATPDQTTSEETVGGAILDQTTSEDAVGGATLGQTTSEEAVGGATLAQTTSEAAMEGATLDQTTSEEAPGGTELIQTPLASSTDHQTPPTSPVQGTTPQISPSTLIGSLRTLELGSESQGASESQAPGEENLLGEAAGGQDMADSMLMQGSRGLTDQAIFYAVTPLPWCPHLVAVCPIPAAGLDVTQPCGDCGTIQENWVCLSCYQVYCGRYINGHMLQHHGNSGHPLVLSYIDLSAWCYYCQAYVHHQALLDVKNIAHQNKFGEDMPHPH

[16] = system: HCT-116; assay: Induction of cell morphological changes in human HCT-116 cells assessed as chromatin condensation at 0.5 to 5 uM measured after 24 hrs by Hoechst 33258 staining based fluorescence microscopy; format: functional; details: dose 0.5-5 µM
[17] = system: HCT-116; assay: Cell cycle arrest in human HCT-116 cells assessed as accumulation of cells at G0/G1 phase at 0.1 uM measured after 24 hrs by propidium iodide staining based flow cytometry (reference value: 58.05%); format: functional
[18] = system: HCT-116; assay: Cell cycle arrest in human HCT-116 cells assessed as accumulation of cells at G2/M phase at 10 uM measured after 24 hrs by propidium iodide staining based flow cytometry (reference value: 22.74%); format: functional
[19] = system: HCT-116; assay: Induction of apoptosis in human HCT-116 cells assessed as necrotic cells at 0.5 uM measured after 24 hrs by Annexin V-FITC/propidium iodide staining based flow cytometry (reference value: 7.39%); format: functional
[20] = system: HCT-116; assay: Cell cycle arrest in human HCT-116 cells assessed as accumulation of cells at G2/M phase at 0.1 uM measured after 24 hrs by propidium iodide staining based flow cytometry (reference value: 22.74%); format: functional

Histone deacetylase 4, sequence (P56524 whole entry, the tested form may be a part): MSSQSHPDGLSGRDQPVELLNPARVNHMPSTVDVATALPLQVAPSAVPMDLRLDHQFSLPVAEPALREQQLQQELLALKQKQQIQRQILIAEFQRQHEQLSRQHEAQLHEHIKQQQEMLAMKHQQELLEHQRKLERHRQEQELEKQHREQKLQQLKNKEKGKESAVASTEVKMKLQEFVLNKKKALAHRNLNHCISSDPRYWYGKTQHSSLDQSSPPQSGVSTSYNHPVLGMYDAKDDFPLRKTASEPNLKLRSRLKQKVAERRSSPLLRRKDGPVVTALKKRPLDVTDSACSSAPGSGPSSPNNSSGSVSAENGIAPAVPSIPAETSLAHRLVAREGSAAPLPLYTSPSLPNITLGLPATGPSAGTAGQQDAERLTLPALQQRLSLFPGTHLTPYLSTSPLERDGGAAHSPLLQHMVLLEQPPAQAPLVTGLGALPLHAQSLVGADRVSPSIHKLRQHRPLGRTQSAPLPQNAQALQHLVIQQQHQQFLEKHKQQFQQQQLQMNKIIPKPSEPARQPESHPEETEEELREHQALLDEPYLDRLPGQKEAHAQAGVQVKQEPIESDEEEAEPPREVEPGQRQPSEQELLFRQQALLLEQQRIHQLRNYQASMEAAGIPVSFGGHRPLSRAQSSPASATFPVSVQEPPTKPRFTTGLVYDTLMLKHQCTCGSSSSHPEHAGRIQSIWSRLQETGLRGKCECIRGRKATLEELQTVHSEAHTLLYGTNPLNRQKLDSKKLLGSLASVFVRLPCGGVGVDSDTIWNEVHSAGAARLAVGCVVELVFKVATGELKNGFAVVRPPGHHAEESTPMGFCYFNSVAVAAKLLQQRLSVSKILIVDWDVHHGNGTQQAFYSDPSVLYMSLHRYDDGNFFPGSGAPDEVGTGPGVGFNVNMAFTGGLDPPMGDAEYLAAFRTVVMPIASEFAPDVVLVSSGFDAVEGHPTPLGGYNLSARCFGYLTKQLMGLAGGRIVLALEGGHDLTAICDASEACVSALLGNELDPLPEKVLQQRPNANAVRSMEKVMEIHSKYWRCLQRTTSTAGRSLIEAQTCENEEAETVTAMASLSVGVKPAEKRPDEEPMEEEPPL

## CCCCNc1nc(Cl)nc2c1ncn2Cc1ccc(C(=O)Nc2ccccc2N)cc1
[1]
  Activity: 20.23%
[2]
  Activity: 64.42%
[3]
  inhibition: Dde
[4]
  IC50: 0.12 µM
[5]
  Ratio IC50: 19
[6]
  Activity: 14.39%
[7]
  half-life at 13.8 µM: 3.73 h
[8]
  CLint: 3.1 µL/min/mg
[9]
  Activity: 70.6%
[10]
  Activity: 66.71%
[11]
  IC50: > 100 µM
[12]
  Activity: Active
[13]
  Activity: 20.04%
[14]
  Activity: Dde
[15]
  IC50: 34.2 µM
[16]
  Activity: Active
[17]
  Activity: 59.1%
[18]
  Activity: 11.15%
[19]
  Activity: 0.442%
[20]
  Activity: 23.95%
